Measured values taken from PMC10667265 (Scientific Reports, 2023).
Where two headings read alike, the source gives them in different places. Where no end group is shown, it is not given here.

Legend:
[1] = infiltrated into the abaxial side of leaves of potato plants; methanolic extracts of leaf disks; conditions: potato (Solanum tuberosum cv. Désirée), 20 °C, up to 8 h
[2] = for amidated StPIP1_1 remaining: two independent experiments, n = 16 (Fig. 6A)
[3] = exogenous application to leaves; cited from earlier work
Text: In Arabidopsis, PIPs are encoded by 11 genes. […] Recently, the PAMP-induced peptides StPIP1 to StPIP4 were described in potato (Solanum tuberosum[23]).

potato = conditions: used as control for Pep-13; cited from earlier work
Method: Potato plants (Solanum tuberosum cv. Désirée) were cultivated in sterile tissue culture in a phytochamber (16 h light, ~ 140 µE, 22 °C). Plants were transferred to steam-sterilized soil and grown for 4 weeks under long day conditions in a phytochamber (16 h light, ~ 140 µE, 60% humidity, 20 °C). PAMP treatment was performed with leaf disks that were cut out from 4-week-old potato plants with a biopsy puncher (4 mm diameter) and placed with the abaxial side onto the surface of 250 µl of water in a 96-well plate. The plate was incubated overnight at 22 °C in the dark. Water from the wells was re ...

**Q.** For RLPSGPSPRGPGH-NH2, which cleaved bond [1] is on record?
**A.** Its cleaved bond is “H-NH2, within minutes”.

**Q.** With RLPSGPSPRGPGH-NH2 [StPIP1_1] as the substance, how does the “amidated StPIP1_1 remaining” value ([2]; 100 µM amidated peptide infiltrated into leaves of phytochamber-grown potato plants, 30 min after infiltration, methanolic leaf extracts, LC-MS) read?
**A.** The value was 20%.

**Q.** And the “amidated StPIP1_1 remaining” value ([2]; 100 µM amidated peptide infiltrated into potato leaves, 1 h after infiltration, LC-MS)?
**A.** Its value is 10%.

**Q.** Which results are given for TLGGIKAGPSPGEGHKVVNSHHQ [StPIP1]?
**A.** ROS production [3]: does not induce; increases in the cytosolic Ca2+ concentrations [3]: does not induce

**Q.** For VANQPVRGFKVYE [W2A], which “elicitor activity relative to Pep-13” value (potato) is on record?
**A.** Its value is “nearly inactive”.

**Q.** For VWNQPVRGFKVYE [acidic form of Pep-13], which “time within which the acidic form was degraded” value ([2]; after infiltration of 100 µM amidated Pep-13 into potato leaves, LC-MS (Fig. 6D)) is on record?
**A.** The value was at most 1 h.

**Q.** For VWNQPVRGFKVYE-NH2, which cleaved bond [1] is on record?
**A.** The cleaved bond was “E-NH2, within 30 min”.

**Q.** With “VWNQPVRGFKVYE-NH2 [Pep-13, reference compound]” as the substance, how does the “time within which the amidated peptide was converted to the acidic form” value ([2]; 100 µM amidated Pep-13 infiltrated into potato leaves, LC-MS, two independent experiments (Fig. 6C)) read?
**A.** Its value is at most 30 min.
